Laboratory results as given in patent US12403159B2, “Therapeutic metal complexes and ligands and methods of making and using the same” (Oregon State University, priority 2017, dated 2025).

Legend:
[1] = Reduction versus oxidation standard potentials (anhydrous DMSO); format: physicochemical; conditions: relative to CuPhMeTSM; FIG. 3
Source text: The low reduction potential or, phrased differently, the high copper affinity of the ATSM ligand for cupric ion (in the 2+ ionization state) prevents copper release in most tissues, but allows selective release of copper in hypoxic tissues or in cells with damaged mitochondrial electron transport chains; however, even slight modifications of the CuATSM compound (e.g., removing one or both methyl groups from the carbon atoms of the diimine functional groups) results in rapid copper release that can result in toxicity in SOD ALS models. […] Continued treatment thus is necessary to provide sufficient copper for CCS to complete the maturation of Cu,Zn SOD. But, such continued treatment also has the potential to cause toxicity due to greater copper intake. Furthermore, given the negative reduction potential of CuATSM, it is very difficult to reduce, which is reflected in the slow efficacy in replenishing SOD and COX extending over weeks. As a consequence, the majority of CuATSM (e.g., >95%) is eliminated in urine with copper still bound. […] See, for example, FIG. 3, which illustrates reduction (left) versus oxidation standard potentials (right) for ligand components (as determined in anhydrous DMSO). […]

Cu,Zn SOD (human SOD) = assay: Mass spectrometric assay of mature/immature SOD in CNS tissue of treated CCS×SOD^WT transgenic mice; format: in vivo; conditions: CSS×SOD^WT transgenic mice; for increase in mature SOD compared to untreated SOD^WT mice: FIG. 4
Procedure: Tissue Preparation for SOD and Cytochrome c Oxidase assays—Whole brains and spinal cords were rapidly dissected from euthanized transgenic mice, immediately frozen in liquid nitrogen, and then stored at −80° C. until use. To prepare brain tissue for mass spectrometry or cytochrome c oxidase assay, frozen brains were first placed on a plate on top of a slab of dry ice so that the brittle frozen tissue could warm to a temperature that allowed sectioning with a razor blade (approx. −10° C.). Motor cortex and surrounding cerebrum was then sectioned to a thickness of approximately 1 mm with a razor blade. A 500 μm biopsy needle was used to isolate three ˜250 μg punches from each mouse tissue, which provided technical replicates for mass spectrometry and cytochrome c oxidase examples. Tissue punches were weighed using a Cahn 25 Automatic Electrobalance (Cerritos, CA, USA) with a sensitivity of ±0.1 μg. Tissue punches were homogenized for 12 seconds using a VWR Handheld cordless motorized homogenizer to a concentration of 5 μg tissue/μl of homogenization buffer. Homogenization buffer (made fresh daily) was 10 mM ammonium acetate, pH 5.0-5.1. For SOD measurements, 300 nM bovine SOD (Sigma) was added as an internal standard. The ratio of human SOD to the bovine SOD internal standard was used to calculate the concentration of human SOD detected in mouse tissue. After homogenizing, samples were centrifuged for 2 minutes at 16000×g at 4° C. in an Eppendorf 5415 R centrifuge to pellet cell debris. Supernatant was transferred to a clean tube for mass spectrometry or cytochrome c oxidase assays. […]
An LTQ-FT Ultra hybrid linear ion trap-Fourier transform ion cyclotron resonance mass spectrometer (Thermo, San Jose, Calif.) with a Finnigan Ion Max API source configured for electrospray ionization (ESI) in positive ion mode was used for all mass spectrometry experiments. All SOD quantitation was performed using the linear ion trap with scan range of 800 to 2000 m/z, which allowed for detection of SOD multiple charge states +9 through +13. […]
Data were quantified in a custom Matlab program. […]

[2] = Elimination of CuATSM in urine; conditions: in vivo
Source text: This crystallization and high melting point create issues with forming an orally-active CuATSM compound and prevents the use of solid dispersant methods to formulate the complex for oral delivery. As such, producing formulations having appropriate dosage limits of CuATSM remains a limitation in using this compound therapeutically, particularly in view of CuATSM's propensity to gradually crystalize out of matrices and form insoluble crystals. Large amounts of crystallized CuATSM passes into the bowels, and thereby contributes to gastrointestinal distress. […]
The low reduction potential or, phrased differently, the high copper affinity of the ATSM ligand for cupric ion (in the 2+ ionization state) prevents copper release in most tissues, but allows selective release of copper in hypoxic tissues or in cells with damaged mitochondrial electron transport chains; however, even slight modifications of the CuATSM compound (e.g., removing one or both methyl groups from the carbon atoms of the diimine functional groups) results in rapid copper release that can result in toxicity in SOD ALS models. […] See, for example, FIG. 3, which illustrates reduction (left) versus oxidation standard potentials (right) for ligand components (as determined in anhydrous DMSO). […]

cytochrome c oxidase = assay: Cytochrome c oxidase assay in brain and spinal cord of treated mice; format: in vivo; conditions: brain (FIG. 7A) and spinal cord (FIG. 7B); dermally with DMSO, 50 mg/kg/day once daily from four days of age, measured at day 21
Procedure: Tissue Preparation for SOD and Cytochrome c Oxidase assays—Whole brains and spinal cords were rapidly dissected from euthanized transgenic mice, immediately frozen in liquid nitrogen, and then stored at −80° C. until use. To prepare brain tissue for mass spectrometry or cytochrome c oxidase assay, frozen brains were first placed on a plate on top of a slab of dry ice so that the brittle frozen tissue could warm to a temperature that allowed sectioning with a razor blade (approx. −10° C.). Motor cortex and surrounding cerebrum was then sectioned to a thickness of approximately 1 mm with a razor blade. […] The ratio of human SOD to the bovine SOD internal standard was used to calculate the concentration of human SOD detected in mouse tissue. […]
Cytochrome c oxidase assay—The assay buffer included 30 uM reduced cytochrome c in 50 mM potassium phosphate buffer pH 7.0 containing 20 μM EDTA and 24 units/ml catalase. The final dilution of reduced cytochrome c stock should yield an absorbance at 550 nm of 0.7. […] To minimize interference from turbidity, the absorbance at 550 nm minus the absorbance at 580 nm was monitored. The change in absorbance was measured for one minute. Then, 2 μl of 100 mM sodium cyanide and the absorbance change was monitored for another 20 seconds. […]

G93A SOD×CCS mice = assay: Survival of G93A SOD×CCS mice under treatment; format: in vivo
Procedure: In this example, G93A SOD×CCS mice were treated with 50 mg/kg/day of CuPhMeTSM transdermally starting at 4 days of age. The compound was able to keep six G93A SOD×CCS mice alive for 300 days (n=6). Results are illustrated in FIG. 10.

juvenile mice = assay: Effect of free ligands on growth of juvenile mice; format: in vivo
Source text: Another limitation is that the ATSM ligand component of the CuATSM complex is pharmacologically active in binding metals and thus can react in potentially undesirable side reactions.

Row | effect on growth of juvenile mice (juvenile mice) | Molecule | increase in mature SOD compared to untreated SOD^WT mice (Cu,Zn SOD (human SOD)) [µM] | increase in COX activity (cytochrome c oxidase) | further results
1 | significant delay in growth | CN/C(S)=N/N=C/C=N/N=C(\S)NC [GTSM] |  |  | 
2 | significant delay in growth | CN/C(S)=N/N=C/C(C)=N/N=C(\S)NC [PTSM] |  |  | 

The next lines start with the molecule.

Row | Molecule | effect on growth of juvenile mice (juvenile mice) | increase in mature SOD compared to untreated SOD^WT mice (Cu,Zn SOD (human SOD)) [µM] | increase in COX activity (cytochrome c oxidase) | further results
3 | CN=C([S-])N/N=C(C)/C(C)=N/NC([S-])=NC.[Cu+2] [CuATSM] |  | 13 |  | oxidation wave: oxidized more easily than CuPhMeTSM by [1]: ~40 mV; fraction eliminated in urine with copper still bound [2]: > 95%
4 | CNC1=NN=C(C)C(c2ccccc2)=NN=C(NC)[S][Cu][S]1 [CuPhMeTSM, copper phenylmethylTSM] |  | 60 | nearly twice the extent of CuATSM | decrease in amount of immature SOD (Cu,Zn SOD (human SOD); FIG. 6): decreased most; toxicity from the treatment (G93A SOD×CCS mice; G93A SOD×CCS mice, 50 mg/kg/day transdermally from 4 days of age): no toxicity apparent; time mice were kept alive (G93A SOD×CCS mice; G93A SOD×CCS mice, 50 mg/kg/day transdermally from 4 days of age, n=6): 300 days; mice still alive after receiving treatment (G93A SOD×CCS mice; low expressing G93A SOD mice crossed to CCS overexpressing mice, 50 mg/kg/day after four days of age, FIG. 10): nine out of 11
5 | copper 4-nitrophenylmethylTSM [nitro analog] |  |  | not as effective as the CuPhMeTSM embodiment | 
